In the CheMixHub viscosity set:

Test: xn = mol fraction of the nth substance listed

CCN(CC)S(C)(=O)=O + CCCO
303.15 K, 101.33 kPa
Settings	viscosity [mPa·s]
x1 = 0.0661	16100
x1 = 0.1423	15830
x1 = 0.2148	16120
x1 = 0.3057	16930
x1 = 0.3821	17930
x1 = 0.4421	18840
x1 = 0.5219	20390
x1 = 0.5944	22040
x1 = 0.685	24610
x1 = 0.7587	27160
x1 = 0.8085	29250
x1 = 0.8907	33340

CS(C)=O + CCCO
Settings	viscosity [mPa·s]
298.15 K, 101.3 kPa, x1 = 0.0789	1.75
298.15 K, 101.3 kPa, x1 = 0.1613	1.651
298.15 K, 101.3 kPa, x1 = 0.339	1.535
298.15 K, 101.3 kPa, x1 = 0.434	1.541
298.15 K, 101.3 kPa, x1 = 0.5363	1.562
298.15 K, 101.3 kPa, x1 = 0.6421	1.641
298.15 K, 101.3 kPa, x1 = 0.755	1.736
298.15 K, 101.3 kPa, x1 = 0.8737	1.845
298.15 K, 101.31 kPa, x1 = 0.1053	1.666
298.15 K, 101.31 kPa, x1 = 0.2078	1.55
298.15 K, 101.31 kPa, x1 = 0.413	1.496
298.15 K, 101.31 kPa, x1 = 0.5099	1.527
298.15 K, 101.31 kPa, x1 = 0.7025	1.664
298.15 K, 101.31 kPa, x1 = 0.7984	1.746
298.15 K, 101.31 kPa, x1 = 0.9011	1.871
303.15 K, 101 kPa, x1 = 0.5	1.425
303.15 K, 101.3 kPa, x1 = 0.0789	1.63
303.15 K, 101.3 kPa, x1 = 0.1613	1.54
303.15 K, 101.3 kPa, x1 = 0.2478	1.452
303.15 K, 101.3 kPa, x1 = 0.5363	1.436
303.15 K, 101.3 kPa, x1 = 0.6421	1.495
303.15 K, 101.3 kPa, x1 = 0.755	1.57
303.15 K, 101.3 kPa, x1 = 0.8737	1.676
308.15 K, 101.31 kPa, x1 = 0.2973	1.249
308.15 K, 101.31 kPa, x1 = 0.5099	1.29
308.15 K, 101.31 kPa, x1 = 0.5989	1.329
308.15 K, 101.31 kPa, x1 = 0.7984	1.465
308.15 K, 101.31 kPa, x1 = 0.9011	1.56
313.15 K, 101 kPa, x1 = 0.7998	1.335
318.15 K, 101.31 kPa, x1 = 0.1053	1.116
318.15 K, 101.31 kPa, x1 = 0.2078	1.064
318.15 K, 101.31 kPa, x1 = 0.2973	1.048
318.15 K, 101.31 kPa, x1 = 0.413	1.064
318.15 K, 101.31 kPa, x1 = 0.5099	1.093
318.15 K, 101.31 kPa, x1 = 0.5989	1.129
318.15 K, 101.31 kPa, x1 = 0.7025	1.189
318.15 K, 101.31 kPa, x1 = 0.7984	1.239
318.15 K, 101.31 kPa, x1 = 0.9011	1.314

O=C(O)C=Cc1ccccc1 + CCCO
viscosity [mPa·s]
Settings	308.15 K	313.15 K	318.15 K	323.15 K
101 kPa, x1 = 0.0687	2.066	–	–	–
101 kPa, x1 = 0.0901	2.224	–	–	–
101 kPa, x1 = 0.109	2.44	–	–	–
101.33 kPa, x1 = 0.0687	2.066	1.836	1.629	1.452
101.33 kPa, x1 = 0.109	2.44	2.158	1.888	1.683

CC(=O)O.NCCO + CCO
viscosity [mPa·s], 101 kPa
Settings	x1 = 0.0193	x2 = 0.7231	x2 = 0.7996	x2 = 0.8604	x2 = 0.9136	x2 = 0.9373	x2 = 0.9595
293.15 K	1.608	20.45	9.894	5.502	3.168	2.55	1.998
298.15 K	1.458	16.96	8.454	4.8	2.85	2.28	1.806
303.15 K	1.32	14.22	7.26	4.212	2.55	2.07	1.65
